From US20080207522A1, “Antimicrobial Peptides” (priority 2004, published 2008)
Ends that are not written are not given here.

What was measured:
[1] = system: Candida albicans
Experimental: (§1) Minimal inhibitory concentration (MIC) determination. The MICs of the peptides were measured using a modified broth microdilution method in Mueller Hinton (MH) medium. Wu et al., J. Biol. Chem. 274: 29-35, 1999. Briefly, the peptides were dissolved and stored in glass vials. The assay was performed in sterile 96-well polypropylene microtitre plates were used. Serial dilutions of the peptides to be assayed were performed in 0.01% acetic acid (Fisher) containing 0.2% bovine serum albumin (Boehringer Mannheim GmbH) at 10× the desired final concentration. Ten microlitres of the 10× peptides were added to each well of a 96-well polypropylene plate containing 90 μl of MH media per well. Bacteria were added to the plate from an overnight culture at 2-7×10^5 colony forming units/ml and incubated over night at 37° C. The MIC was taken as the concentration at which no growth was observed.
(§2) Strains. For the killing assay a mini-Tn5-lux mutant in Pseudomonas aeruginosa H103 was used. The strain is called H1001 and contains a fliC::luxCDABE transcriptional fusion resulting in constitutive expression of luciferase. The bacterial strains used for the antimicrobial activity assays included Escherichia coli UB1005 (F-, nalA37, metB1), a wild-type Salmonella enterica ssp. Typhimurium (S. Typhimurium), wild-type Pseudomonas aeruginosa PAO1 strain H103, Enterococcus faecalis ATCC29212, Staphylococcus aureus ATCC25923, and a clinical isolate of Staphylococcus epidermidis obtained from Dr. D. Speert (Department of Medicine, University of British Columbia). Antifungal activity was tested using a lab isolate of Candida albicans obtained from Dr. B. Dill (Department of Microbiology and Immunology, University of British Columbia).
(§3) In addition, the parent peptide Bac2A was included in these studies as a standard. The minimal inhibitory concentrations (MIC) were determined for the important medical pathogens Pseudomonas aeruginosa, Escherichia coli, Salmonella typhimurium, Staphylococcus aureus, Staphylococcus epidermidis, Enterococcus faecaelis, and the yeast Candida albicans in Mueller-Hinton media.

[2] = system: Enterococcus faecalis ATCC29212; settings: ATCC29212
Experimental: as §1, §2, §3

[3] = system: Pseudomonas aeruginosa PAO1 strain H103; settings: PAO1
Experimental: as §1, §2, §3

[4] = system: Salmonella enterica ssp. Typhimurium; settings: ssp. Typhimurium
Experimental: as §1, §2, §3

[5] = system: Staphylococcus aureus ATCC25923; settings: ATCC25923
Experimental: as §1, §2, §3

[6] = system: Staphylococcus epidermidis
Experimental: as §1, §2, §3

[7] = system: Pseudomonas aeruginosa strain H1001; experiment: Assay for the cleaved (free, soluble) peptides from cellulose support, luminescence killing assay; format: cell-based; set-up: key: 1: Peptides showing stronger killing than Bac2A at a 4 to 8-fold higher dilution; Peptides showing stronger killing compared to that of Bac2A at a 4-fold higher dilution; 3: Peptides similar to Bac2A; 4: Peptides similar to Bac2A at the highest concentration but demonstrating weaker killing at a 2-fold dilution; 5: Peptides giving very weak or no killing at a 2-fold dilution; 6: Peptides with weak killing activity at the highest concentration; settings: free (cleaved) peptides, killing relative to Bac2A
How it was run: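 Cellulose-synthesized peptides (amidated C-terminus, two β-alanines) cleaved by ammonia, released from punched spots 30 min at 37 °C, then serially diluted. P. aeruginosa H1001 (constitutive fliC::luxCDABE) overnight culture diluted 1:500 in LB or 100 mM Tris pH 7.3/20 mM glucose. Killing followed as time-dependent luminescence loss at 37 °C.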

[8] = system: Pseudomonas aeruginosa strain H1001 fliC::luxCDABE; experiment: Luminescence-based assay for the non-cleaved (bound) peptides on cellulose membranes; format: cell-based; settings: for Luminescence at the given time in minutes: 0 / Luminescence at the given time in minutes: 20 / Luminescence at the given time in minutes: 40 / Luminescence at the given time in minutes: 60 / Luminescence at the given time in minutes: 80 / Luminescence at the given time in minutes: 100 / Luminescence at the given time in minutes: 120 / Luminescence at the given time in minutes: 180 / Luminescence at the given time in minutes: 240: cellulose-bound peptide; for Luminescence at the given time in minutes: 0: 0 min; for Luminescence at the given time in minutes: 20: 20 min; for Luminescence at the given time in minutes: 40: 40 min; for Luminescence at the given time in minutes: 60: 60 min; for Luminescence at the given time in minutes: 80: 80 min; for Luminescence at the given time in minutes: 100: 100 min; for Luminescence at the given time in minutes: 120: 120 min; for Luminescence at the given time in minutes: 180: 180 min; for Luminescence at the given time in minutes: 240: 240 min; for Activity Class bound: uncleaved cellulose-bound peptides
How it was run: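 Peptides remained bound to cellulose spots, which were ethanol-washed and equilibrated in 100 mM Tris pH 7.3. Constitutively lux-expressing P. aeruginosa (OD600 0.35 culture diluted 1:25) added in 10 mM Tris-HCl pH 7.3, 20 mM glucose at 37° C. Luminescence (RLU) followed over 14 time points; peptides binned into six activity classes.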

## GLARIVVIRVAR-NH2 (C-terminus assumed) [Bac206]
[1]
  MIC C. albicans: 125 µg/mL
[2]
  MIC E. faecalis: 31 µg/mL
[3]
  MIC P. aerug: 125 µg/mL
[4]
  MIC S. Typhim.: 63 µg/mL
[5]
  MIC S. aureus: 63 µg/mL
[6]
  MIC S. epi.: 16 µg/mL

## KIWVIRWR-NH2 (C-terminus assumed) [Bac434]
[1]
  MIC C. albicans: 16 µg/mL
[2]
  MIC E. faecalis: 16 µg/mL
[3]
  MIC P. aerug: 16 µg/mL
[4]
  MIC S. Typhim.: 31 µg/mL
[5]
  MIC S. aureus: 16 µg/mL
[6]
  MIC S. epi.: 4 µg/mL

## LARIVVIRVAR-NH2 (C-terminus assumed) [Bac102]
[1]
  MIC C. albicans: 83 µg/mL
[2]
  MIC E. faecalis: 46 µg/mL
[3]
  MIC P. aerug: 83 µg/mL
[4]
  MIC S. Typhim.: >83 µg/mL
[5]
  MIC S. aureus: 83 µg/mL
[6]
  MIC S. epi.: 11 µg/mL

## RGARIVVIRVAR-NH2 (C-terminus assumed) [Bac225]
[1]
  MIC C. albicans: 16 µg/mL
[2]
  MIC E. faecalis: 31 µg/mL
[3]
  MIC P. aerug: 31 µg/mL
[4]
  MIC S. Typhim.: 31 µg/mL
[5]
  MIC S. aureus: 31 µg/mL
[6]
  MIC S. epi.: 16 µg/mL

## RIWVIRWR-NH2 (C-terminus assumed) [Bac435]
[1]
  MIC C. albicans: 16 µg/mL
[2]
  MIC E. faecalis: 8 µg/mL
[3]
  MIC P. aerug: 16 µg/mL
[4]
  MIC S. Typhim.: 16 µg/mL
[5]
  MIC S. aureus: 4 µg/mL
[6]
  MIC S. epi.: 4 µg/mL

## RIWVIWRR-NH2 (C-terminus assumed) [Bac436]
[1]
  MIC C. albicans: 8 µg/mL
[2]
  MIC E. faecalis: 2 µg/mL
[3]
  MIC P. aerug: 8 µg/mL
[4]
  MIC S. Typhim.: 8 µg/mL
[5]
  MIC S. aureus: 2 µg/mL
[6]
  MIC S. epi.: 2 µg/mL

## RLARIVKIRVAR-NH2 (C-terminus assumed) [Bac323]
[1]
  MIC C. albicans: 31 µg/mL
[2]
  MIC E. faecalis: 125 µg/mL
[3]
  MIC P. aerug: 31 µg/mL
[4]
  MIC S. Typhim.: 63 µg/mL
[5]
  MIC S. aureus: 125 µg/mL
[6]
  MIC S. epi.: 31 µg/mL

## RLARIVVFRVAR-NH2 (C-terminus assumed) [Bac338]
[1]
  MIC C. albicans: >250 µg/mL
[2]
  MIC E. faecalis: >250 µg/mL
[3]
  MIC P. aerug: >250 µg/mL
[4]
  MIC S. Typhim.: >250 µg/mL
[5]
  MIC S. aureus: >250 µg/mL
[6]
  MIC S. epi.: >250 µg/mL

## RLARIVVIRV-NH2 (C-terminus assumed) [Bac103]
[1]
  MIC C. albicans: 23 µg/mL
[2]
  MIC E. faecalis: 23 µg/mL
[3]
  MIC P. aerug: 46 µg/mL
[4]
  MIC S. Typhim.: 46 µg/mL
[5]
  MIC S. aureus: 46 µg/mL
[6]
  MIC S. epi.: 11 µg/mL

## RLARIVVIRVA-NH2 (C-terminus assumed) [Bac101]
[1]
  MIC C. albicans: 63 µg/mL
[2]
  MIC E. faecalis: 31 µg/mL
[3]
  MIC P. aerug: 63 µg/mL
[4]
  MIC S. Typhim.: 31 µg/mL
[5]
  MIC S. aureus: 63 µg/mL
[6]
  MIC S. epi.: 16 µg/mL

## RLARIVVIRVAG-NH2 (C-terminus assumed) [Bac415]
[1]
  MIC C. albicans: 63 µg/mL
[2]
  MIC E. faecalis: 31 µg/mL
[3]
  MIC P. aerug: 63 µg/mL
[4]
  MIC S. Typhim.: 63 µg/mL
[5]
  MIC S. aureus: 63 µg/mL
[6]
  MIC S. epi.: 31 µg/mL

## RLARQVVIRVAR-NH2 (C-terminus assumed) [Bac289]
[1]
  MIC C. albicans: 8 µg/mL
[2]
  MIC E. faecalis: 4 µg/mL
[3]
  MIC P. aerug: 16 µg/mL
[4]
  MIC S. Typhim.: 8 µg/mL
[5]
  MIC S. aureus: 8 µg/mL
[6]
  MIC S. epi.: 2 µg/mL

## RLARRVVIRVAR-NH2 (C-terminus assumed) [Bac290]
[1]
  MIC C. albicans: 125 µg/mL
[2]
  MIC E. faecalis: 125 µg/mL
[3]
  MIC P. aerug: 63 µg/mL
[4]
  MIC S. Typhim.: 31 µg/mL
[5]
  MIC S. aureus: 63 µg/mL
[6]
  MIC S. epi.: 16 µg/mL

## RLRRIVVIRVAR-NH2 (C-terminus assumed) [Bac252]
[1]
  MIC C. albicans: 16 µg/mL
[2]
  MIC E. faecalis: 8 µg/mL
[3]
  MIC P. aerug: 8 µg/mL
[4]
  MIC S. Typhim.: 8 µg/mL
[5]
  MIC S. aureus: 8 µg/mL
[6]
  MIC S. epi.: 2 µg/mL

## RLRRIVVIRVRR-NH2 (C-terminus assumed) [Bac433]
[1]
  MIC C. albicans: 31 µg/mL
[2]
  MIC E. faecalis: 4 µg/mL
[3]
  MIC P. aerug: 8 µg/mL
[4]
  MIC S. Typhim.: 8 µg/mL
[5]
  MIC S. aureus: 8 µg/mL
[6]
  MIC S. epi.: 2 µg/mL

## RLWRIVVIRVAR-NH2 (C-terminus assumed) [Bac256]
[1]
  MIC C. albicans: 8 µg/mL
[2]
  MIC E. faecalis: 2 µg/mL
[3]
  MIC P. aerug: 8 µg/mL
[4]
  MIC S. Typhim.: 8 µg/mL
[5]
  MIC S. aureus: 2 µg/mL
[6]
  MIC S. epi.: 0.5 µg/mL

## RRARIVVIRVAR-NH2 (C-terminus assumed) [Bac233]
[1]
  MIC C. albicans: 8 µg/mL
[2]
  MIC E. faecalis: 16 µg/mL
[3]
  MIC P. aerug: 8 µg/mL
[4]
  MIC S. Typhim.: 8 µg/mL
[5]
  MIC S. aureus: 16 µg/mL
[6]
  MIC S. epi.: 2 µg/mL

## RRWRIVVIRVRR-NH2 (C-terminus assumed) [Bac430]
[1]
  MIC C. albicans: 4 µg/mL
[2]
  MIC E. faecalis: 4 µg/mL
[3]
  MIC P. aerug: 2 µg/mL
[4]
  MIC S. Typhim.: 4 µg/mL
[5]
  MIC S. aureus: 2 µg/mL
[6]
  MIC S. epi.: 0.2 µg/mL

## RRWVIWRR-NH2 (C-terminus assumed) [Bac437]
[1]
  MIC C. albicans: 63 µg/mL
[2]
  MIC E. faecalis: 32 µg/mL
[3]
  MIC P. aerug: 250 µg/mL
[4]
  MIC S. Typhim.: 31 µg/mL
[5]
  MIC S. aureus: 16 µg/mL
[6]
  MIC S. epi.: 8 µg/mL

## RVLIVIRARRVA-NH2 (C-terminus assumed) [Bac043]
[7]
  Activity Class Soluble: 1
[8]
  Luminescence at the given time in minutes: 0: 5254 RLU
  Luminescence at the given time in minutes: 20: 6385 RLU
  Luminescence at the given time in minutes: 40: 3722 RLU
  Luminescence at the given time in minutes: 60: 1189 RLU
  Luminescence at the given time in minutes: 80: 313 RLU
  Luminescence at the given time in minutes: 100: 159 RLU
  Luminescence at the given time in minutes: 120: 67 RLU
  Luminescence at the given time in minutes: 180: 84 RLU
  Luminescence at the given time in minutes: 240: 52 RLU
  Activity Class bound: 3 (Peptides similar to Bac2A resulting in lux values of less than 500 after 240 min.)
[3]
  MIC P. aeruginosa: 40 µg/mL
[5]
  MIC S. aureus: 23 µg/mL

## RWWKIWVIRWWR-NH2 (C-terminus assumed) [Bac432]
[1]
  MIC C. albicans: 31 µg/mL
[2]
  MIC E. faecalis: 8 µg/mL
[3]
  MIC P. aerug: 31 µg/mL
[4]
  MIC S. Typhim.: 16 µg/mL
[5]
  MIC S. aureus: 8 µg/mL
[6]
  MIC S. epi.: 1 µg/mL

## VRIRARRVILVA-NH2 (C-terminus assumed) [Bac006]
[7]
  Activity Class Soluble: 1
[8]
  Luminescence at the given time in minutes: 0: 3878 RLU
  Luminescence at the given time in minutes: 20: 6829 RLU
  Luminescence at the given time in minutes: 40: 4619 RLU
  Luminescence at the given time in minutes: 60: 2393 RLU
  Luminescence at the given time in minutes: 80: 867 RLU
  Luminescence at the given time in minutes: 100: 469 RLU
  Luminescence at the given time in minutes: 120: 277 RLU
  Luminescence at the given time in minutes: 180: 286 RLU
  Luminescence at the given time in minutes: 240: 306 RLU
  Activity Class bound: 3 (Peptides similar to Bac2A resulting in lux values of less than 500 after 240 min.)
[3]
  MIC P. aeruginosa: 28 µg/mL
[5]
  MIC S. aureus: 28 µg/mL
